Experimental data reported in US12336981B2, “Compounds and compositions for the inhibition of NAMPT” (Valo Health, Inc., priority 2010, dated 2025).
Read-outs that look alike come from different tables or passages of the source.

Assays:
NAMPT = target: T1, NAMPT (Homo sapiens, UniProt P43490); assay: Biochemical inhibition assay: NAMPT enzymatic reaction, NMN quantified by mass spectrometry
T1 construct: His tag; host or cells: E. coli
Method in brief: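 Inhibition of E. coli-expressed His-tagged human NAMPT, measured as NMN formation by mass spectrometry after a 30 min room-temperature reaction containing 1 μM NAM, 100 μM PRPP and 2.5 mM ATP.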

A2780 cells = assay: In-vitro cell proliferation assay (SRB), A2780 cells; assay type: cell-based; settings: Homo sapiens, A2780, 72 h
Method in brief: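 SRB read-out: 6% TCA fix 1 h at 4° C., stain, Tris solubilize, A570. Media-only background subtracted; % inhibition from two compound concentrations.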

[1] = NAMPT enzymatic assay, read-out: Biochem IC50
[2] = A2780 cells, 72 hours, SRB, read-out: A2780 IC50
[3] = NAMPT enzymatic reaction, read-out: Biochem IC50
[4] = A2780 cells, 72 hours, SRB assay, read-out: A2780 IC50

T1 sequence (P43490 whole entry): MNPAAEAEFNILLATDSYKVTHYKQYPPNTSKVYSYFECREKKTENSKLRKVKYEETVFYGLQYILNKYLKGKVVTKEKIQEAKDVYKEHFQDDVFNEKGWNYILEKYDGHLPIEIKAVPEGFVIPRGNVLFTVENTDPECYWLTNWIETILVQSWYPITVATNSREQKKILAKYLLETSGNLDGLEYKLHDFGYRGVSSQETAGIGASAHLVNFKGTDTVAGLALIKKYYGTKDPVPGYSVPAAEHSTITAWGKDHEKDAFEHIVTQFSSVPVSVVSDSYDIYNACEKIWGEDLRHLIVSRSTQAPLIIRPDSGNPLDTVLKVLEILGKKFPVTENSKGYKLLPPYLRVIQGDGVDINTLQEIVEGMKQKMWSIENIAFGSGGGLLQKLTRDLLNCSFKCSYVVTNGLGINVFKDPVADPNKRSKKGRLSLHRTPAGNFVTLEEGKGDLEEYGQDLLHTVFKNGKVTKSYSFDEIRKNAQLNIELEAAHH

Row | SMILES | IC50 (NAMPT; [1]) [µM] | IC50 (A2780 cells; [2]) [µM] | IC50 (NAMPT; [3]) [µM] | also measured
1 | O=C(NCc1ccc(S(=O)(=O)c2ccc(C(F)(F)F)nc2)cc1)c1cc2ccncc2s1 [N-({4-[6-(trifluoromethyl)pyridine-3-sulfonyl]phenyl}methyl)thieno[2,3-c]pyridine-2-carboxamide] | 0.0076 | 0.0067 |  | 
2 | O=C(NCc1ccc(S(=O)(=O)c2cccc(C(F)(F)F)n2)cc1)c1cc2ccncc2o1 [N-({4-[6-(trifluoromethyl)pyridine-2-sulfonyl]phenyl}methyl)furo[2,3-c]pyridine-2-carboxamide] | 0.005 | 0.0031 |  | 
3 | O=C(NCc1ccc(S(=O)(=O)N2CCCCC2)cc1)c1ccn2nnnc2c1 [N-{[4-(piperidine-1-sulfonyl)phenyl]methyl}-[1,2,3,4]tetrazolo[1,5-a]pyridine-7-carboxamide] |  |  | 0.003 | IC50 (A2780 cells; [4]): 0.009 µM
4 | Cn1ncc2cccc(S(=O)(=O)c3ccc(CNC(=O)c4ccc5nccn5c4)cc3)c21 [N-{[4-(1-methyl-1H-indazole-7-sulfonyl)phenyl]methyl}imidazo[1,2-a]pyridine-6-carboxamide] | 0.0287 | 0.0275 |  | 
5 | O=C(NCc1ccc(S(=O)(=O)c2cccnc2)cc1)c1cc2ccncc2o1 [N-{[4-(pyridine-3-sulfonyl)phenyl]methyl}furo[2,3-c]pyridine-2-carboxamide] | 0.009 | 0.0664 |  | 
6 | O=C(NCc1ccc(S(=O)(=O)c2cncc(C(F)(F)F)c2)cc1)c1ccc2nccn2c1 [N-({4-[5-(trifluoromethyl)pyridine-3-sulfonyl]phenyl}methyl)imidazo[1,2-a]pyridine-6-carboxamide] | 0.009 | 0.0013 |  | 
7 | COc1cc(C)cc(OC)c1S(=O)(=O)c1ccc(CNC(=O)c2cc3ccncc3s2)cc1 [N-({4-[(2,6-dimethoxy-4-methylbenzene)sulfonyl]phenyl}methyl)thieno[2,3-c]pyridine-2-carboxamide] |  |  | 0.007 | IC50 (A2780 cells; [4]): 0.003 µM
8 | CNC(=O)c1cccc(S(=O)(=O)c2ccc(CNC(=O)c3cnc4nccn4c3)cc2)c1 | 0.0037 | 0.1 to 1 |  | 
9 | O=C(NCc1ccc(S(=O)(=O)c2cccc(Cl)c2)cc1)c1cnc2[nH]ncc2c1 [N-({4-[(3-chlorobenzene)sulfonyl]phenyl}methyl)-1H-pyrazolo[3,4-b]pyridine-5-carboxamide] |  | 0.006 | 0.007 | 
10 | CCCOc1ccc(S(=O)(=O)c2ccc(CNC(=O)c3cc4cnccc4[nH]3)cc2)cc1F |  | 0.0104 | 0.0309 | 
11 | Cc1ccc(Cl)c(S(=O)(=O)c2ccc(CNC(=O)c3cnc4nccn4c3)cc2)c1Cl |  | 0.056 | 0.0073 | 
12 | COc1c(F)cccc1S(=O)(=O)c1ccc(CNC(=O)c2cc3cnccc3[nH]2)cc1 |  | 0.0063 | 0.0324 | 
13 | CCCOc1ccc(S(=O)(=O)c2ccc(CNC(=O)c3ccc4nccn4c3)cc2)cc1F |  | 0.0044 | 0.0221 | 
14 | COc1cc(F)ccc1S(=O)(=O)c1ccc(CNC(=O)c2cc3ccncc3s2)cc1 [N-({4-[(4-fluoro-2-methoxybenzene)sulfonyl]phenyl}methyl)thieno[2,3-c]pyridine-2-carboxamide] |  |  | 0.009 | IC50 (A2780 cells; [4]): 0.0065 µM
15 | O=C(NCc1ccc(S(=O)(=O)c2ccco2)cc1)c1ccc2nccn2c1 [N-{[4-(furan-2-sulfonyl)phenyl]methyl}imidazo[1,2-a]pyridine-6-carboxamide] | 0.0762 | 0.1 to 1 |  | 
16 | CCCCOc1ccc(S(=O)(=O)c2ccc(CNC(=O)c3cnc4nccn4c3)cc2)cc1F |  | 0.0031 | 0.0012 | 
17 | CCCCOc1cc(F)ccc1S(=O)(=O)c1ccc(CNC(=O)c2ccc3nccn3c2)cc1 |  | 0.0062 | 0.0512 | 
18 | O=C(NCc1ccc(S(=O)(=O)c2cc(F)cc(C(F)(F)F)c2)cc1)c1cnc2[nH]ncc2c1 [N-[(4-{[3-fluoro-5-(trifluoromethyl)benzene]sulfonyl}phenyl)methyl]-1H-pyrazolo[3,4-b]pyridine-5-carboxamide] | 0.0112 | 0.00345 |  | 
19 | CCc1ccccc1S(=O)(=O)c1ccc(CNC(=O)c2cnc3nccn3c2)cc1 |  | 0.0249 | 0.0025 | 
20 | O=C(NCc1ccc(S(=O)(=O)c2cccc(N3CCCCC3)c2)cc1)c1ccc2ncsc2c1 | 0.021 | 0.1 to 1 |  | 
21 | O=C(NCc1ccc(S(=O)(=O)c2ccccc2OC(F)(F)F)cc1)c1cc2ccncc2s1 [N-[(4-{[2-(trifluoromethoxy)benzene]sulfonyl}phenyl)methyl]thieno[2,3-c]pyridine-2-carboxamide] |  |  | 0.004 | IC50 (A2780 cells; [4]): 0.0028 µM
22 | CCc1cccc(S(=O)(=O)c2ccc(CNC(=O)c3ccc4nccn4c3)cc2)c1 [N-({4-[(3-ethylbenzene)sulfonyl]phenyl}methyl)imidazo[1,2-a]pyridine-6-carboxamide] |  | 0.00323 | 0.00483 | 
23 | COc1cc(C)c(S(=O)(=O)c2ccc(CNC(=O)c3cnc4nccn4c3)cc2)cc1C |  | 0.013 | 0.0052 | 
24 | O=C(NCc1ccc(S(=O)(=O)c2cccc(OCC(F)(F)F)c2)cc1)c1ccc2nccn2c1 | 0.015 | 0.0059 |  | 
25 | O=C(NCc1ccc(S(=O)(=O)c2ccc(F)cc2C(F)(F)F)cc1)c1cnc2nccn2c1 | 0.0187 | 0.1 to 1 |  | 

Row | SMILES | IC50 (NAMPT; [1]) [µM] | IC50 (A2780 cells; [2]) [µM] | IC50 (NAMPT; [3]) [µM] | also measured
26 | O=C(NCc1ccc(S(=O)(=O)c2ccccc2)cc1)c1n[nH]c2ncccc12 [N-{[4-(benzenesulfonyl)phenyl]methyl}-1H-pyrazolo[3,4-b]pyridine-3-carboxamide] |  |  | 1.27 | IC50 (A2780 cells; [4]): > 10 µM
27 | COc1ccc2cc(S(=O)(=O)c3ccc(CNC(=O)c4ccc5nccn5c4)cc3)ccc2c1 [N-{[4-(6-methoxynaphthalene-2-sulfonyl)phenyl]methyl}imidazo[1,2-a]pyridine-6-carboxamide] | 0.0027 | 0.0018 |  | 
28 | O=C(NCc1ccc(S(=O)(=O)c2ccc(N3CCOCC3)nc2)cc1)c1cnc2nccn2c1 [N-({4-[6-(morpholin-4-yl)pyridine-3-sulfonyl]phenyl}methyl)imidazo[1,2-a]pyrimidine-6-carboxamide] | 0.0011 | 0.0033 |  | 
29 | Cc1cc(-n2cccn2)ccc1S(=O)(=O)c1ccc(CNC(=O)c2cc3cnccc3[nH]2)cc1 [N-[(4-{[2-methyl-4-(1H-pyrazol-1-yl)benzene]sulfonyl}phenyl)methyl]-1H-pyrrolo[3,2-c]pyridine-2-carboxamide] |  |  | 0.004 | IC50 (A2780 cells; [4]): 0.004 µM
30 | O=C(NCc1ccc(S(=O)(=O)c2ccc(C(F)(F)F)c(F)c2)cc1)c1cc2ccncc2s1 | 0.0088 | 0.0072 |  | 
31 | O=C(NCc1ccc(S(=O)(=O)c2c(Cl)cccc2Cl)cc1)c1cc2ccncc2o1 |  | 0.0601 | 0.0124 | 
32 | CC(C)c1ccc(S(=O)(=O)c2ccc(CNC(=O)c3cc4ccncc4s3)cc2)cc1 [N-[(4-{[4-(propan-2-yl)benzene]sulfonyl}phenyl)methyl]thieno[2,3-c]pyridine-2-carboxamide] |  |  | 0.006 | IC50 (A2780 cells; [4]): 0.0071 µM
33 | Cc1ccc(S(=O)(=O)c2ccc(CNC(=O)c3cc4ccncc4o3)cc2)cc1 [N-({4-[(4-methylbenzene)sulfonyl]phenyl}methyl)furo[2,3-c]pyridine-2-carboxamide] |  | 0.006 | 0.121 | 
34 | CCCCOc1ccc(Cl)cc1S(=O)(=O)c1ccc(CNC(=O)c2cnc3nccn3c2)cc1 |  | 0.0628 | 0.0037 | 
35 | COc1c(F)cccc1S(=O)(=O)c1ccc(CNC(=O)c2cc3ccncc3s2)cc1 |  | 0.0125 | 0.0133 | 
36 | CCCOc1ccc(Cl)cc1S(=O)(=O)c1ccc(CNC(=O)c2cc3cnccc3[nH]2)cc1 |  | 0.0012 | 0.0075 | 
37 | O=C(NCc1ccc(S(=O)(=O)c2ccc(F)cc2C(F)(F)F)cc1)c1cc2ccncc2s1 | 0.0064 | 0.0143 |  | 
38 | O=C(NCc1ccc(S(=O)(=O)c2cccc3c2OCC3)cc1)c1cc2ccncc2o1 [N-{[4-(2,3-dihydro-1-benzofuran-7-sulfonyl)phenyl]methyl}furo[2,3-c]pyridine-2-carboxamide] | 0.006 | 0.0071 |  | 
39 | COc1ccc(S(=O)(=O)c2ccc(CNC(=O)c3cnc4[nH]ncc4c3)cc2)c(OC)c1 |  | 0.0447 | 0.174 | 
40 | O=C(NCc1ccc(S(=O)(=O)c2cc(OC(F)(F)F)ccc2Cl)cc1)c1cnc2nccn2c1 | 0.008 | 0.0125 |  | 
41 | COc1ccc(C(C)=O)cc1S(=O)(=O)c1ccc(CNC(=O)c2cnc3[nH]ncc3c2)cc1 |  | 0.0275 | 0.0277 | 
42 | Cc1cc(C)n(-c2cccc(S(=O)(=O)c3ccc(CNC(=O)c4ccc5ncsc5c4)cc3)c2)n1 | 0.0179 | 0.1 to 1 |  | 
43 | O=C(Nc1ccc(S(=O)(=O)c2ccccc2)cc1)c1cccnc1 [N-[4-(benzenesulfonyl)phenyl]pyridine-3-carboxamide] |  |  | 12 | IC50 (A2780 cells; [4]): > 30 µM
44 | Cc1c(Cl)cccc1S(=O)(=O)c1ccc(CNC(=O)c2cc3ccncc3s2)cc1 |  |  |  | IC50 (NAMPT; Biochem IC50 uM): 0.0572 µM; IC50 (A2780 cells; read-out: A2780 IC50 uM): 0.0071 µM
45 | COc1cc(F)c(F)cc1S(=O)(=O)c1ccc(CNC(=O)c2cnc3nccn3c2)cc1 |  | 0.0249 | 0.0119 | 
46 | CCOc1cc(S(=O)(=O)c2ccc(CNC(=O)c3cc4ccncc4s3)cc2)ccc1F |  | 0.0031 | 0.0033 | 
47 | N#Cc1ccccc1S(=O)(=O)c1ccc(CNC(=O)c2cc3cnccc3[nH]2)cc1 [N-({4-[(2-cyanobenzene)sulfonyl]phenyl}methyl)-1H-pyrrolo[3,2-c]pyridine-2-carboxamide] |  | 0.0629 | 0.0253 | 
48 | COc1cccc(S(=O)(=O)c2ccc(CNC(=O)c3cc4ccncc4o3)cc2)c1 |  | 0.0069 | 0.0035 | 
49 | O=C(NCc1ccc(S(=O)(=O)N2CCCCC2)cc1)c1ccc2cnccc2n1 [N-{[4-(piperidine-1-sulfonyl)phenyl]methyl}-1,6-naphthyridine-2-carboxamide] |  |  | 0.012 | IC50 (A2780 cells; [4]): 0.01 µM
